Experimental data from patent US20060094676A1, “Compositions and methods for treating cancer using compositions comprising an inhibitor of endothelin receptor activity” (priority 2004, published 2006).
Entries after “also recorded” stand apart in the source; their conditions may differ.

How the values were obtained:
7 melanoma lines = assay: MTS assay, number of viable cells; type: cell-based; conditions: 100 μM BQ788; all 7 melanoma lines tested
[1] = system: SK-MEL-28 and LN-met cell lines; assay: cDNA microarray analysis of differentially regulated genes; type: cell-based, human; conditions: SK-MEL-28 and LN-met after 2 days BQ788, confirmed by real-time RT-PCR
Experimental: Cells were cultured in the presence of BQ788 or its solvent (HCO60) for 2 days and then lysed and subjected to RNA extraction using SV Total RNA isolation kit (Promega). Two rounds of RNA amplification were conducted using RiboAmp™ RNA Amplification kit (Arcturus). Labeled cDNA was obtained by reverse transcription of 6 μl amplified RNA and incorporation of Cy3-dCTP (5-Amino-propargyl-2′-dexoycytidine 5′-triphosphate coupled to Cy3 fluorescent dye) and Cy5-dCTP (5-Amino-propargyl-2′-dexoycytidine 5′-triphosphate coupled to Cy5 fluorescent dye) (Amersham Biosciences). Human 10k arrays containing PCR products spotted onto glass slides were obtained from the Lausanne DNA Array Facility (DAF). Hybridization of labeled cDNA to microarrays was preformed for 16 h at 64° C. in a humidified chamber (Corning Costar). Scanning was done in a Scanarray 4000 scanner (Perkin Elmer). Image analysis was preformed using the ScanAlyse program (version 2.5). Data analysis was done using the R package: Statistics for Microarray analysis containing com.braju.sma package (www.r-project.org).
To explore the possible mechanisms that underlie the loss of viability of metastatic but not primary melanoma cells in response to ETRB antagonism, changes in gene expression profiles of BQ788-treated and untreated cells were investigated by cDNA microarray analysis. […]

kidney cells = assay: MTS assay, number of viable cells; type: cell-based; conditions: high concentrations of BQ788
SK-MEL-28 = assay: Apoptosis detection ELISA (histone-associated DNA fragments); type: cell-based, human; conditions: BQ788 5 days
Experimental: (§1) Cells were plated in 24 wells plate in 500 μl medium and cultured for 5 days in the presence of BQ788 or solvent. A cell death detection ELISA PLUS kit (Roche) designed to reveal histone-180 bp DNA fragment complexes of nucleosomes was used to measure apoptosis. Briefly, cells floating in the supernatants and those attached to the dish were incubated in lysis buffer for 30 min. in room temperature (RT). After spinning for 10 min at 200 g, the DNA content of each sample was determined. 20 μl containing equal amounts of DNA were added to each well (3 wells per condition) coated with anti-histone antibody and incubated with additional 80 μl anti-DNA peroxidase immunogen under gentle shaking conditions for 2 h at RT. After washing and revelation with peroxidase substrate the samples OD were measured at 405 nm against substrate containing wells as blank.
(§2) Because BCL-2A1 and PARP are known regulators of apoptosis (Smulson, et al., Roles of poly(ADP-ribosyl)ation and PARP in apoptosis, DNA repair, genomic stability and functions of p53 and E2F-1, Adv. Enzyme Regul., 40:183-215 (2000); Vander Heiden, et al., Bcl-2 proteins: regulators of apoptosis or of mitochondrial homeostasis?, Nat. Cell Biol., 1:E209-E216, (1999)), we used an apoptosis detection ELISA that detects histone-associated DNA fragments to measure apoptotic cell death in the different cell lines treated with BQ788.

LN-met = assay: as above; type: cell-based, human; conditions: BQ788 5 days
Experimental: as §1, §2

Cut-met line = assay: as above; type: cell-based, human; conditions: BQ788 5 days
Experimental: as §1, §2

primary melanoma cells = assay: as above; type: cell-based, human; conditions: BQ788 5 days
Experimental: as §1, §2

## CCCC[C@@H](NC(=O)[C@@H](Cc1cn(C(=O)OC)c2ccccc12)NC(=O)[C@H](CC(C)(C)C)NC(=O)N1[C@H](C)CCC[C@@H]1C)C(=O)O [BQ788, N-cis-2,6-dimethylpiperidinocarbonyl-L-γ-methylleucyl-D-1-methoxycarbonyltrptophanyl-D-norleucine]
7 melanoma lines
  number of viable cells: very significant loss
[1]
  Down regulated gene: BCL2-A1; also recorded: PARP-3; also recorded: Gravin; also recorded: EDNRB
  Up regulated gene: VEGF and HIF-1α
Kidney cells
  number of kidney cells: not reduced
SK-MEL-28
  apoptosis level: highest induction
LN-met
  apoptosis level: intermediate level
Cut-met line
  apoptosis level: slight increase
Primary melanoma cells
  apoptosis level: did not display apoptosis
